Test results reported in the kinase profiling compilation of Christmann-Franck et al. (2016).

Key:
Experiment in all cases: KINOMEscan competition binding
Details in all cases: compound 10.0 µM
[1] = tested on: BMX (human), P51813 [V600E]
[2] = molecular target: MAPK6 (human) (UniProt Q16659)
[3] = molecular target: STK17B (human) (UniProt O94768)
[4] = tested on: EGFR (human), P00533 [G719C]
[5] = molecular target: MAPK8 (human) (UniProt P45983)
[6] = molecular target: DDR1 (human) (UniProt Q08345)
[7] = molecular target: PAK2 (human) (UniProt Q13177)
[8] = molecular target: LCK (human) (UniProt P06239)
[9] = molecular target: BRSK1 (human) (UniProt Q8TDC3)
[10] = molecular target: STK36 (human) (UniProt Q9NRP7)
[11] = molecular target: NLK (human) (UniProt Q9UBE8)
[12] = molecular target: ANKK1 (human) (UniProt Q8NFD2)
[13] = molecular target: MERTK (human) (UniProt Q12866)
[14] = molecular target: MARK1 (human) (UniProt Q9P0L2)
[15] = molecular target: STK10 (human) (UniProt O94804)
[16] = molecular target: EPHB1 (human) (UniProt P54762)
[17] = molecular target: SRPK3 (human) (UniProt Q9UPE1)
[18] = molecular target: PAK3 (human) (UniProt O75914)
[19] = molecular target: CDKL2 (human) (UniProt Q92772)
[20] = molecular target: MAP2K4 (human) (UniProt P45985)
[21] = tested on: EGFR (human), P00533 [L858R]
[22] = molecular target: MAPK11 (human) (UniProt Q15759)
[23] = molecular target: EIF2AK2 (human) (UniProt P19525)
[24] = molecular target: MAP3K12 (human) (UniProt Q12852)
[25] = molecular target: MKNK2 (human) (UniProt Q9HBH9)
[26] = molecular target: CDC2L2 (human) (UniProt Q9UQ88)
[27] = molecular target: SRPK2 (human) (UniProt P78362)
[28] = molecular target: FGFR3 (human) (UniProt P22607)
[29] = molecular target: MAPK13 (human) (UniProt O15264)
[30] = molecular target: BMPR1A (human) (UniProt P36894)
[31] = molecular target: LYN (human) (UniProt P07948)
[32] = molecular target: PLK4 (human) (UniProt O00444)
[33] = molecular target: MAPK4 (human) (UniProt P31152)
[34] = molecular target: TTK (human) (UniProt P33981)
[35] = molecular target: EPHB6 (human) (UniProt O15197)
[36] = molecular target: GRK1 (human) (UniProt Q15835)

Chain of ANKK1 (human) (Q8NFD2 whole entry, looked up): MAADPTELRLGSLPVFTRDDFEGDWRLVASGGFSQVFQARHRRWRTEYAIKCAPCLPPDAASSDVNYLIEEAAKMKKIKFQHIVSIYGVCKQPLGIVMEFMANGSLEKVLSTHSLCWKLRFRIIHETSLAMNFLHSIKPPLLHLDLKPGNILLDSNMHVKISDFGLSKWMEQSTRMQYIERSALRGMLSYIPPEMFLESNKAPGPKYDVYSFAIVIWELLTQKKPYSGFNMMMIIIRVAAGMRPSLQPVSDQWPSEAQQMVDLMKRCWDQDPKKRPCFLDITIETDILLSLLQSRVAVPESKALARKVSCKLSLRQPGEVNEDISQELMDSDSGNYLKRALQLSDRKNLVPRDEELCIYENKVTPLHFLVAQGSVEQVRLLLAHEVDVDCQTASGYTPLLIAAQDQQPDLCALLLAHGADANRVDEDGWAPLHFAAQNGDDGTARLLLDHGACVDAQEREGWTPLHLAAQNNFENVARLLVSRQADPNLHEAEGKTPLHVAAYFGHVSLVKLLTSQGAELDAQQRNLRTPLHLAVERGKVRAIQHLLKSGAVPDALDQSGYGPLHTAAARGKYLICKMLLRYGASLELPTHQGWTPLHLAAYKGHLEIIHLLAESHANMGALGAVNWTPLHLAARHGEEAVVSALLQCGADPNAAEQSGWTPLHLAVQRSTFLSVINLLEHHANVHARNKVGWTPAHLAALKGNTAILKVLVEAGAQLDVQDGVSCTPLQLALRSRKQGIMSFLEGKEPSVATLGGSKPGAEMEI
Chain of LYN (human) (P07948 whole entry, looked up): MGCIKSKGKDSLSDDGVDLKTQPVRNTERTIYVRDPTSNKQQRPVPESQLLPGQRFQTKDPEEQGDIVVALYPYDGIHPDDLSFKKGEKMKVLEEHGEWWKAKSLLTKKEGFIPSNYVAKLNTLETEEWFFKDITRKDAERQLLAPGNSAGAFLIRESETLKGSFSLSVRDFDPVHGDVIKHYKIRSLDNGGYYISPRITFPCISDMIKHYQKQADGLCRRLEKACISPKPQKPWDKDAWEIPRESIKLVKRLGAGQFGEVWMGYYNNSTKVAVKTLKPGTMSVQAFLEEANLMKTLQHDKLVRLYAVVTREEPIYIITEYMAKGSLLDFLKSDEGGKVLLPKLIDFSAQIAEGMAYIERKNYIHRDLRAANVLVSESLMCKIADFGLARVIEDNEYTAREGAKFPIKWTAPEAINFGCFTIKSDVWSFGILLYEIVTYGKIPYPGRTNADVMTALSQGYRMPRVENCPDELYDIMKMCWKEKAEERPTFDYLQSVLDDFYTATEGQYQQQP
Chain of MAP3K12 (human) (Q12852 whole entry, looked up): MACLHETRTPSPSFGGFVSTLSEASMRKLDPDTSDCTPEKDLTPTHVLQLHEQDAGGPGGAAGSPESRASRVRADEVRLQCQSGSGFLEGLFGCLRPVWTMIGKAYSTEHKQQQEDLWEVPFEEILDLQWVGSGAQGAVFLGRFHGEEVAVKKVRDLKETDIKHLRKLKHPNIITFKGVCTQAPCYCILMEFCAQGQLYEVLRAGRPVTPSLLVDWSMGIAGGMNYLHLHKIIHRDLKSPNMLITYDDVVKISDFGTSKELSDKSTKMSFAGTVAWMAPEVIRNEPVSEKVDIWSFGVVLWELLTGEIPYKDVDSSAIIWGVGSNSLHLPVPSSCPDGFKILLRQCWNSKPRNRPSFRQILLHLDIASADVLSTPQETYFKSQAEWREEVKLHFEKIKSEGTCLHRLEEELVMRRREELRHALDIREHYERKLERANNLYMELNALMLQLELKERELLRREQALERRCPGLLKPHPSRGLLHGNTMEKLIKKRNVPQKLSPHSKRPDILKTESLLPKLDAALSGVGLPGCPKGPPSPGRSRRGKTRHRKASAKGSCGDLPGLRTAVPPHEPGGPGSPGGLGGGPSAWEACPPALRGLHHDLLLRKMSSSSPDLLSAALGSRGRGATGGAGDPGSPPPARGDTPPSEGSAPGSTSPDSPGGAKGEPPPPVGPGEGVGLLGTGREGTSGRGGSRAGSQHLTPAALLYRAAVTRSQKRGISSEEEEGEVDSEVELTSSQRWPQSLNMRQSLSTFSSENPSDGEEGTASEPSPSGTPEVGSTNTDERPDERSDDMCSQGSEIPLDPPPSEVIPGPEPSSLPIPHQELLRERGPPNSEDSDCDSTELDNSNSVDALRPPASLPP
Chain of MAPK6 (human) (Q16659 whole entry, looked up): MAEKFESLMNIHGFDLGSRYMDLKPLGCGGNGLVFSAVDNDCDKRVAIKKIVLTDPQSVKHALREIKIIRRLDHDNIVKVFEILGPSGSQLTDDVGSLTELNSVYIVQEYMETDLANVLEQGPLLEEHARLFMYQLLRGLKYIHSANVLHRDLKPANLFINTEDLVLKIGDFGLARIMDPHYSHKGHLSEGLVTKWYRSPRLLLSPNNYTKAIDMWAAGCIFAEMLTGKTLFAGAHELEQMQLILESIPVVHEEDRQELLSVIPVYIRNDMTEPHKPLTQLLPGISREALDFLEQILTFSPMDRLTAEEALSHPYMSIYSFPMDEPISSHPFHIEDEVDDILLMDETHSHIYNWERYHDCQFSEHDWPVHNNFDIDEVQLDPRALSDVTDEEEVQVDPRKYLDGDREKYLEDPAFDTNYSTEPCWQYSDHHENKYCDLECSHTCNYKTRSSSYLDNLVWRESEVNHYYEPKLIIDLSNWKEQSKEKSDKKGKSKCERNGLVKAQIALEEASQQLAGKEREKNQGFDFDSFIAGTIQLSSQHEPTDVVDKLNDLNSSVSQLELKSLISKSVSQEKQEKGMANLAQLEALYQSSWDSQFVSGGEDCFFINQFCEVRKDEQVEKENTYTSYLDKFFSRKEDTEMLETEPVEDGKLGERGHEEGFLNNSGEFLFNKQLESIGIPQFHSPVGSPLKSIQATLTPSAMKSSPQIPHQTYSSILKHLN
Chain of EIF2AK2 (human) (P19525 whole entry, looked up): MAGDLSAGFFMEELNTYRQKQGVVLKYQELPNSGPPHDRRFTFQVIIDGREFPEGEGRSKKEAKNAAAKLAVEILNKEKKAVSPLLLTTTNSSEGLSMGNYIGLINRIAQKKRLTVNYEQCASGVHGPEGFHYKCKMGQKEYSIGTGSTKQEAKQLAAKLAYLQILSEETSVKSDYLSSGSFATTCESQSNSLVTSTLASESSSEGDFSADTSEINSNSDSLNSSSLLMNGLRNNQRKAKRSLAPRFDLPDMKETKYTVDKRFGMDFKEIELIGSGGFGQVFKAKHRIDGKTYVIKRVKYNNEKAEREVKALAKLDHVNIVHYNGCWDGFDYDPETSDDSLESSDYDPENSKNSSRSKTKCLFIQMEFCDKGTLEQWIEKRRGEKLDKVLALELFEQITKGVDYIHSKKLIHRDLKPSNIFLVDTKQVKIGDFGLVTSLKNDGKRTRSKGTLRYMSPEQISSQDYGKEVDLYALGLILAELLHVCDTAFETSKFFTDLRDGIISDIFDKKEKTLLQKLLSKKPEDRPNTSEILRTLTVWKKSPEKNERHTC
Chain of SRPK2 (human) (P78362 whole entry, looked up): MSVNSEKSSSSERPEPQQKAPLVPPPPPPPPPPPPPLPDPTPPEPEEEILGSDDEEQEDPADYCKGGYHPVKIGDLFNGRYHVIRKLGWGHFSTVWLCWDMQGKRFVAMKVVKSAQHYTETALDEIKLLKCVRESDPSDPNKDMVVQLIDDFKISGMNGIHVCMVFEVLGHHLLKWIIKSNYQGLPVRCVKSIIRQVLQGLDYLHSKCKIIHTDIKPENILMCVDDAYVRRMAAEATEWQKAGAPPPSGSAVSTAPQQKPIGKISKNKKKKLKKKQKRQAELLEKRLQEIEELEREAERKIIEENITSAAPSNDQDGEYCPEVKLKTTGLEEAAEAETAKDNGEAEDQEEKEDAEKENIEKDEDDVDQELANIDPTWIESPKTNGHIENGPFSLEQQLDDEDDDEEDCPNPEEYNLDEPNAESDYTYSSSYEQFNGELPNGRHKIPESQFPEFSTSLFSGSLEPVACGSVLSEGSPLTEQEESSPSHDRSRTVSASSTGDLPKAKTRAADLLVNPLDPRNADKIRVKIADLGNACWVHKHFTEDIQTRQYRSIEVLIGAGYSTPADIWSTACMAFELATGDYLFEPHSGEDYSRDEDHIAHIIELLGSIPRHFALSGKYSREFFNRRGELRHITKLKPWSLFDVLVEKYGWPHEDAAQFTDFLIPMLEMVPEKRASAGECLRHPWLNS
Chain of MAPK11 (human) (Q15759 whole entry, looked up): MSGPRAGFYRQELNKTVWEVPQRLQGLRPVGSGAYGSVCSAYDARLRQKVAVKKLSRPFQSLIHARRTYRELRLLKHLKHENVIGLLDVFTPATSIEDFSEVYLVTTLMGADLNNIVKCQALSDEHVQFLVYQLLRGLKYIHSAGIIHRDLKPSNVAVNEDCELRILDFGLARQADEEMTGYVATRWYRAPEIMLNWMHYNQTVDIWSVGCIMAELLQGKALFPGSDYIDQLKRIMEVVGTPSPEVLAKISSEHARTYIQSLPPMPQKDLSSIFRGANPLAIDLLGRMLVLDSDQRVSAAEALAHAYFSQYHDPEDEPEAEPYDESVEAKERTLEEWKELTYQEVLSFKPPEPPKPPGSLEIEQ
Chain of MAPK13 (human) (O15264 whole entry, looked up): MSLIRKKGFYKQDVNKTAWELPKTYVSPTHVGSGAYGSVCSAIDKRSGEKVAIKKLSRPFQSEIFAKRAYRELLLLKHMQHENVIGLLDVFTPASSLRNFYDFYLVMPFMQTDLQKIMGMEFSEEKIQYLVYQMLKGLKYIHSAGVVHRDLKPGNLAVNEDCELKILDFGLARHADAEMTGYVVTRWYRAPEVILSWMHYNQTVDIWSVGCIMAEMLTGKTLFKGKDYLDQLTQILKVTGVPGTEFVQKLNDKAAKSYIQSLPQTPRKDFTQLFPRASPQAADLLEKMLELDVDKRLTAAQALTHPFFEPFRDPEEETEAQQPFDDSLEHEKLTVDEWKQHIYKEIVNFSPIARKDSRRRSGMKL

Row | kinase still bound, per cent of control [1] | kinase still bound, per cent of control [2] | kinase still bound, per cent of control [3] | kinase still bound, per cent of control [4] | kinase still bound, per cent of control [5] | kinase still bound, per cent of control [6] | kinase still bound, per cent of control [7] | kinase still bound, per cent of control [8] | kinase still bound, per cent of control [9] | kinase still bound, per cent of control [10] | kinase still bound, per cent of control [11] | kinase still bound, per cent of control [12] | kinase still bound, per cent of control [13] | kinase still bound, per cent of control [14] | kinase still bound, per cent of control [15] | kinase still bound, per cent of control [16] | kinase still bound, per cent of control [18] | kinase still bound, per cent of control [20] | kinase still bound, per cent of control [21] | kinase still bound, per cent of control [22] | Structure (SMILES) | other results
1 | 100% | 100% | 100% | 20% | 4.1% | 100% | 100% | 14% | 100% | 100% | 100% | 100% | 32% | 100% | 100% | 100% | 100% | 22% | 0.3% | 100% | COc1cc(N2CCC(C(N)=O)CC2)ccc1Nc1nc(N)c(Cl)c(Nc2ccccc2S(=O)(=O)C(C)C)n1 | kinase still bound, per cent of control [17]: 100%; kinase still bound, per cent of control [19]: 100%; kinase still bound, per cent of control [23]: 100%; kinase still bound, per cent of control [24]: 100%; kinase still bound, per cent of control [25]: 14%; kinase still bound, per cent of control [26]: 100%; kinase still bound, per cent of control [27]: 100%; kinase still bound, per cent of control [28]: 100%; kinase still bound, per cent of control [29]: 100%; kinase still bound, per cent of control [30]: 100%; kinase still bound, per cent of control [31]: 100%; kinase still bound, per cent of control [32]: 2.8%; kinase still bound, per cent of control [33]: 100%; kinase still bound, per cent of control [34]: 7%
2 | 100% | 100% | 100% | 100% | 100% | 100% | 100% | 100% | 100% | 100% | 100% | 100% | 100% | 100% | 100% | 100% | 100% | 100% | 100% | 100% | CCOc1cc(N2CCC(O)CC2)ccc1Nc1ncc2c(n1)N(C)c1ccccc1C(=O)N2C | kinase still bound, per cent of control [35]: 100%; kinase still bound, per cent of control [17]: 100%; kinase still bound, per cent of control [19]: 100%; kinase still bound, per cent of control [23]: 100%; kinase still bound, per cent of control [24]: 100%; kinase still bound, per cent of control [25]: 100%; kinase still bound, per cent of control [26]: 100%; kinase still bound, per cent of control [27]: 100%; kinase still bound, per cent of control [28]: 100%; kinase still bound, per cent of control [29]: 100%; kinase still bound, per cent of control [30]: 100%; kinase still bound, per cent of control [31]: 100%; kinase still bound, per cent of control [32]: 2.8%; kinase still bound, per cent of control [33]: 100%; kinase still bound, per cent of control [34]: 19%; kinase still bound, per cent of control [36]: 100%
3 | 100% | 100% | 100% | 100% | 100% | 100% | 100% | 6.2% | 100% | 100% | 100% | 100% | 3.2% | 100% | 13% | 24% | 100% | 100% | 100% | 100% | COc1cc(C)c(Sc2cnc(NC(=O)c3ccc(CNC(C)C(C)C)cc3)s2)cc1C(=O)N1CCN(C(C)=O)CC1 (centres undefined) | kinase still bound, per cent of control [17]: 100%; kinase still bound, per cent of control [19]: 100%; kinase still bound, per cent of control [23]: 100%; kinase still bound, per cent of control [24]: 30%; kinase still bound, per cent of control [25]: 100%; kinase still bound, per cent of control [26]: 100%; kinase still bound, per cent of control [27]: 100%; kinase still bound, per cent of control [28]: 100%; kinase still bound, per cent of control [29]: 100%; kinase still bound, per cent of control [30]: 100%; kinase still bound, per cent of control [31]: 100%; kinase still bound, per cent of control [32]: 100%; kinase still bound, per cent of control [33]: 100%; kinase still bound, per cent of control [34]: 100%
4 | 9.7% | 100% | 100% | 23% | 100% | 0.55% | 100% | 0.4% | 100% | 1.2% | 30% | 100% | 1.2% | 100% | 0% | 0.15% | 11% | 100% | 2.4% | 1.9% | COc1ccc(N(C(=O)Oc2cc(C(=O)Nc3cccc(C(F)(F)F)c3)ccc2C)c2ccnc(Nc3ccc(N4CCN(C)CC4)cc3)n2)c(OC)c1 | kinase still bound, per cent of control [23]: 100%; kinase still bound, per cent of control [24]: 100%; kinase still bound, per cent of control [25]: 100%; kinase still bound, per cent of control [26]: 8%; kinase still bound, per cent of control [27]: 100%; kinase still bound, per cent of control [28]: 3.7%; kinase still bound, per cent of control [31]: 0.95%; kinase still bound, per cent of control [32]: 100%; kinase still bound, per cent of control [33]: 100%; kinase still bound, per cent of control [34]: 100%
